Several values for one entry are separate records, joined by “and”; a condition that tells them apart may be missing. Equal entries are not always repeated. Activity calls are given as the source filed them. The rule behind the calls is not given here.
molecular target: glucose-6-phosphate dehydrogenase-6-phosphogluconolactonase (Plasmodium falciparum 3D7); assay: inhibition of P. falciparum G6PD activity – biochemical, kinetic NADPH detection, orthogonal assay, SAR follow-up (AID 588593); conditions: recombinant PfG6PD-6PGL

Row | SMILES | IC50
1 | O=C(Nc1nnc(S(=O)(=O)N2CCCCCC2)s1)c1ccco1 | 33.3 µM
2 | O=C(Nc1nnc(S(=O)(=O)N2CCCCCC2)s1)c1ccc(F)cc1 | 43.9 µM
3 | Cc1cccc(C(=O)Nc2nnc(S(=O)(=O)N3CCCCCC3)s2)c1 | 5.79 µM
4 | O=C(Nc1nnc(S(=O)(=O)N2CCCCCC2)s1)c1cccc(F)c1 | 18.1 µM
5 | Cc1ccc(C(=O)Nc2nnc(S(=O)(=O)N3CCCCCC3)s2)cc1 | 10.7 µM
6 | COc1ccc(C(=O)Nc2nnc(S(=O)(=O)N3CCCCCC3)s2)cc1 | 47.2 µM
7 | CCN(CC)CCNC(=O)c1ccc2c(c1)NC(=O)/C(=C\c1ccc(OC)cc1)S2 | 12.5 µM
8 | Cc1cccc(C(=O)Nc2nnc(S(=O)(=O)N3c4ccccc4CC3C)s2)c1 (configuration not stated) | > 80 µM (inactive)
9 | O=C(Nc1nnc(S(=O)(=O)N2CCCCCC2)s1)c1ccccc1 | 13.3 µM
10 | Cc1cccc(C(=O)Nc2nnc(S(=O)(=O)N3CCOCC3)s2)c1 | 24.2 µM
11 | O=C1COc2ccc(C(=O)NCCN3CCOCC3)cc2N1 | > 80 µM (inactive)
12 | COc1ccccc1C(=O)Nc1nnc(S(=O)(=O)N2CCCCCC2)s1 | 10 µM
13 | CN1CCN(C(=O)c2ccc3c(c2)NC(=O)/C(=C/c2ccccc2Cl)S3)CC1 | > 80 µM (inactive)
14 | Cc1ccc(C(=O)Nc2nnc(S(=O)(=O)N3CCCc4ccccc43)s2)cc1 | 54.6 µM
15 | CN(C)CCNC(=O)c1ccc2c(c1)NC(=O)CO2 | > 80 µM (inactive)
16 | Cc1ccc(C(=O)Nc2nnc(S(=O)(=O)N3c4ccccc4CC3C)s2)cc1 (configuration not stated) | > 80 µM (inactive)
17 | O=C(Nc1nnc(S(=O)(=O)N2CCCCCC2)s1)c1ccccc1F | 35.2 µM
18 | O=C(Nc1nnc(S(=O)(=O)N2CCCCCC2)s1)c1cccc(Cl)c1 | 20.3 µM

Row | SMILES | IC50
19 | CC1Cc2ccccc2N1S(=O)(=O)c1nnc(NC(=O)c2cccc(Br)c2)s1 (configuration not stated) | > 80 µM (inactive)
20 | O=C1COc2ccc(C(=O)NCCN3CCCC3)cc2N1 | > 80 µM (inactive)
21 | CCN(CC)CCNC(=O)c1ccc2c(c1)NC(=O)/C(=C\c1ccc(OC)c(OC)c1)S2 | 24.5 µM
22 | CCCN(CCC)CCNC(=O)c1ccc2c(c1)NC(=O)/C(=C\c1ccc(C)cc1)S2 | 45.9 µM
23 | O=C(Nc1nnc(S(=O)(=O)N2CCCCCC2)s1)C1CCCCC1 | 38.5 µM
24 | Cc1cccc(C(=O)Nc2nnc(S(=O)(=O)N3CCC(C)CC3)s2)c1 | 9.09 µM
25 | Cc1ccccc1C(=O)Nc1nnc(S(=O)(=O)N2CCCc3ccccc32)s1 | 46.9 µM
26 | O=C1COc2ccc(C(=O)NCCN3CCCCC3)cc2N1 | 77 µM
27 | Cc1ccccc1C(=O)Nc1nnc(S(=O)(=O)N2CCCCCC2)s1 | 11.6 µM
28 | COc1ccc(C(=O)Nc2nnc(S(=O)(=O)N3CCCCCC3)s2)cc1OC | 5.48 µM
29 | O=C(Nc1nnc(S(=O)(=O)N2CCCCC2)s1)c1cccc(F)c1 | 34 µM
30 | CCOc1ccc(C(=O)Nc2nnc(S(=O)(=O)N3CCCCCC3)s2)cc1 | 23.8 µM
31 | COc1ccc(/C=C2/Sc3ccc(C(=O)NCCN(C)C)cc3NC2=O)cc1 | > 80 µM (inactive)
32 | O=C(Nc1nnc(S(=O)(=O)N2CCOCC2)s1)c1cccc(F)c1 | 51.9 µM
33 | CCN(CC)CCNC(=O)c1ccc2c(c1)NC(=O)CO2 | > 80 µM (inactive)
34 | COc1cccc(C(=O)Nc2nnc(S(=O)(=O)N3CCCCCC3)s2)c1 | 31.6 µM
35 | O=C(Nc1nnc(S(=O)(=O)N2CCCCCC2)s1)c1cccc(Br)c1 | 7.09 µM
36 | CN(C)CCNC(=O)c1ccc2c(c1)NC(=O)c1ccccc1O2 | > 80 µM (inactive)

Continued, values first:

Row | IC50 | SMILES
37 | 9.37 µM | CCN(CC)CCNC(=O)c1ccc2c(c1)NC(=O)/C(=C\c1ccccc1F)S2
38 | 18.4 µM | CCN(CC)CCNC(=O)c1ccc2c(c1)NC(=O)/C(=C/c1ccccc1)S2
39 | > 80 µM (inactive) | COc1ccc(/C=C2/Sc3ccc(C(=O)NCCN4CCCCCC4)cc3NC2=O)cc1
40 | > 80 µM (inactive) | Cc1cccc(C(=O)Nc2nnc(S(=O)(=O)N3CCCc4ccccc43)s2)c1
41 | > 80 µM (inactive) | O=C1Nc2cc(C(=O)NCCN3CCOCC3)ccc2S/C1=C\c1ccccc1F
42 | 48.2 µM | CCN(CCNC(=O)c1ccc2c(c1)N(Cc1cc(C)ccc1C)C(=O)c1ccccc1S2)c1ccccc1
43 | > 80 µM (inactive) | CCN(CC)CCNC(=O)c1ccc2c(c1)N(Cc1ccc(C)cc1)C(=O)c1ccccc1S2
44 | 60.5 µM | O=C(NCCN1CCCC1)c1ccc2c(c1)NC(=O)c1ccccc1S2
45 | 3.32 µM | CCN1CCCC1CNC(=O)c1ccc2c(c1)NC(=O)/C(=C\c1ccccc1Cl)S2 (configuration not stated)
46 | > 80 µM (inactive) | COc1ccc(/C=C2/Sc3ccc(C(=O)NCCN4CCCC4)cc3NC2=O)cc1
47 | 4.02 µM | CCC(C)N(CCNC(=O)c1ccc2c(c1)NC(=O)c1ccccc1S2)C1CCCCC1 (configuration not stated)
48 | 11.9 µM | CCN1CCCC1CNC(=O)c1ccc2c(c1)NC(=O)c1ccccc1O2 (configuration not stated)
49 | > 80 µM (inactive) | O=C1Nc2cc(C(=O)NCCN3CCCCCC3)ccc2S/C1=C/c1ccccc1Cl
50 | 62.3 µM | CCN(CC)CCNC(=O)c1ccc2c(c1)NC(=O)c1ccccc1O2
51 | 44.9 µM | CCN(CC)CCNC(=O)c1ccc2c(c1)NC(=O)/C(=C\c1ccccc1Cl)S2
52 | 35.6 µM | O=C(NCCN1CCCC1)c1ccc2c(c1)NC(=O)c1ccccc1O2
53 | 31.6 µM | O=C(NCCN1CCCCC1)c1ccc2c(c1)NC(=O)c1ccccc1O2
54 | 3.17 µM | CCN1CCCC1CNC(=O)c1ccc2c(c1)NC(=O)/C(=C\c1ccccc1F)S2 (configuration not stated)
55 | 8.77 µM | Cc1cccc(/C=C2/Sc3ccc(C(=O)NCCN4CCCC4)cc3NC2=O)c1
56 | > 80 µM (inactive) | CCN1CCCC1CNC(=O)c1ccc2c(c1)N(Cc1cccc(F)c1)C(=O)c1ccccc1S2 (configuration not stated)
57 | > 80 µM (inactive) | CCN1CCCC1CNC(=O)c1ccc2c(c1)N(Cc1ccccc1Cl)C(=O)c1ccccc1S2 (configuration not stated)
58 | > 80 µM (inactive) | CCN(CC)CCNC(=O)c1ccc2c(c1)N(Cc1ccccc1Cl)C(=O)c1ccccc1S2
59 | > 80 µM (inactive) | CCN(CC)CCNC(=O)c1ccc2c(c1)N(Cc1cc(C)ccc1C)C(=O)c1ccccc1S2
60 | 30.8 µM | CCN1CCC[C@@H]1CNC(=O)c1ccc2c(c1)NC(=O)/C(=C/c1ccccc1F)S2
61 | > 80 µM (inactive) | CCN1CCCC1CNC(=O)c1ccc2c(c1)N(Cc1ccccc1F)C(=O)c1ccccc1S2 (configuration not stated)
62 | 41.4 µM | CCN1CCCC1CNC(=O)c1ccc2c(c1)NC(=O)CO2 (configuration not stated)

Row | IC50 | SMILES
63 | > 80 µM (inactive) | O=C(NCCN1CCOCC1)c1ccc2c(c1)NC(=O)c1ccccc1O2
64 | 9.49 µM | CCN1CCC[C@H]1CNC(=O)c1ccc2c(c1)NC(=O)/C(=C/c1ccccc1F)S2
65 | > 80 µM (inactive) | CCN1CCCC1CNC(=O)c1ccc2c(c1)N(Cc1ccc(C(F)(F)F)cc1)C(=O)c1ccccc1S2 (configuration not stated)
66 | 24 µM | O=C1Nc2cc(C(=O)NCCN3CCCCC3)ccc2S/C1=C\c1ccccc1F
67 | 27.2 µM | CCCN(CCC)CCNC(=O)c1ccc2c(c1)NC(=O)/C(=C/c1ccccc1)S2
68 | 28.6 µM | CN(CCNC(=O)c1ccc2c(c1)NC(=O)c1ccccc1S2)C1CCCCC1
69 | 5.01 µM | CCN1CCCC1CNC(=O)c1ccc2c(c1)NC(=O)/C(=C/c1ccccc1C)S2 (configuration not stated)
70 | > 80 µM (inactive) | O=C1Nc2cc(C(=O)NCCN3CCCC3)ccc2S/C1=C/c1ccccc1Cl
71 | 41.8 µM and 57.4 µM | CCN(CC)CCNC(=O)c1ccc2c(c1)NC(=O)c1ccccc1S2
72 | 35.3 µM | COc1cccc(/C=C2/Sc3ccc(C(=O)NCCN4CCCC4)cc3NC2=O)c1
73 | > 80 µM (inactive) | Cc1ccc(CN2C(=O)c3ccccc3Sc3ccc(C(=O)NCCN(C)C)cc32)cc1
74 | > 80 µM (inactive) | O=C1Nc2cc(C(=O)NCc3ccccc3)ccc2S/C1=C\c1ccccc1F
75 | 44.6 µM | CCN(CCNC(=O)c1ccc2c(c1)N(CC)C(=O)c1ccccc1S2)c1ccccc1
76 | > 80 µM (inactive) | CCN(CCNC(=O)c1ccc2c(c1)NC(=O)c1ccccc1S2)c1ccccc1
77 | 4.2 µM | CCN1CCCC1CNC(=O)c1ccc2c(c1)NC(=O)/C(=C/c1cccc3ccccc13)S2 (configuration not stated)
78 | 43.6 µM | CN(C)CCNC(=O)c1ccc2c(c1)NC(=O)/C(=C\c1cccc(Cl)c1)S2
79 | 45.2 µM | CN1CCCC1CCNC(=O)c1ccc2c(c1)NC(=O)/C(=C/c1ccccc1F)S2 (configuration not stated)
80 | 30.8 µM | CC1Cc2ccccc2N1S(=O)(=O)c1nnc(NC(=O)c2cccc(F)c2)s1 (configuration not stated)
81 | 58.5 µM | COc1cccc(/C=C2/Sc3ccc(C(=O)NCCN4CCCCCC4)cc3NC2=O)c1
82 | > 80 µM (inactive) | CCN1CCCC1CNC(=O)c1ccc2c(c1)NC(=O)CS2 (configuration not stated)
83 | 11 µM | O=C1Nc2cc(C(=O)NCCN3CCCCCC3)ccc2S/C1=C/c1ccccc1F
84 | 8.01 µM and 6.42 µM | CCN1CCCC1CNC(=O)c1ccc2c(c1)NC(=O)c1ccccc1S2 (configuration not stated)
85 | 11.3 µM | CCN1CCCC1CNC(=O)c1ccc2c(c1)NC(=O)/C(=C/c1ccccc1OC)S2 (configuration not stated)
86 | 47.9 µM | Cc1cccc(N2CCN(CCNC(=O)c3ccc4c(c3)NC(=O)c3ccccc3S4)CC2)c1C
87 | 15.9 µM | O=C(Nc1nnc(S(=O)(=O)N2CCCc3ccccc32)s1)c1cccc(F)c1
